Laboratory results as given in patent US10351522B2, “Sulfonamide derivative and pharmaceutically acceptable acid addition salt thereof” (UNIVERSITY OF TSUKUBA, priority 2015, dated 2019).

How the values were obtained:
human OX1R = biological target: T1, human OX1R (Homo sapiens, UniProt O43613); assay: Agonist activity against OX1R: intracellular calcium (Fura-2AM, FDSS7000) in CHOOX1R cells; format: cell-based; settings: relative to orexin-A as full agonist (100%); for Emax at 0.1 µM / Emax at 1 µM / Emax at 10 µM: read-out: Response (%) OX1R
T1 construct: expressed in transfected cells; host or cells: CHO (Chinese hamster ovary) cells, line CHOOX1R, co-expressing NFAT-luciferase
T1 sequence (O43613 1-425): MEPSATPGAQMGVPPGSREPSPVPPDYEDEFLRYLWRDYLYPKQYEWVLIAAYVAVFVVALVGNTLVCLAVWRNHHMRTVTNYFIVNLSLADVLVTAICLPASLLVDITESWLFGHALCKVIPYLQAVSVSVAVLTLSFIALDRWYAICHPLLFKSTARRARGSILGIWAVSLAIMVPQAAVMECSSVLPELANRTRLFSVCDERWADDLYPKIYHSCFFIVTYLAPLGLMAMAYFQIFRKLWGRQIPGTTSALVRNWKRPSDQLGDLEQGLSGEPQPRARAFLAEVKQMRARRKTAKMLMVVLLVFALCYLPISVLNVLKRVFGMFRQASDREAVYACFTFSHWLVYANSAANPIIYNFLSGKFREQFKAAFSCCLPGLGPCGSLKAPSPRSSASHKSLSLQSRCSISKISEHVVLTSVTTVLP
In short: (§1)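 Response is agonist activity at 0.1, 1.0 or 10 μM compound as a percentage of the orexin-A full-agonist maximum, taken from 340/380 nm Fura-2 ratio changes. Each cell line is CHO constitutively expressing human OX1R or OX2R with NFAT-luciferase, dye-loaded 60 min with 5 μM Fura-2AM; compound range 10^−7–10^−5 M, 1% DMSO.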

human OX2R = biological target: T2, human OX2R (Homo sapiens, UniProt O43614); assay: Agonist activity against OX2R: intracellular calcium (Fura-2AM, FDSS7000) in CHOOX2R cells; format: cell-based; settings: relative to orexin-A as full agonist (100%)
T2 construct: expressed in transfected cells; host or cells: CHO (Chinese hamster ovary) cells, line CHOOX2R, co-expressing NFAT-luciferase
T2 sequence (O43614 1-444): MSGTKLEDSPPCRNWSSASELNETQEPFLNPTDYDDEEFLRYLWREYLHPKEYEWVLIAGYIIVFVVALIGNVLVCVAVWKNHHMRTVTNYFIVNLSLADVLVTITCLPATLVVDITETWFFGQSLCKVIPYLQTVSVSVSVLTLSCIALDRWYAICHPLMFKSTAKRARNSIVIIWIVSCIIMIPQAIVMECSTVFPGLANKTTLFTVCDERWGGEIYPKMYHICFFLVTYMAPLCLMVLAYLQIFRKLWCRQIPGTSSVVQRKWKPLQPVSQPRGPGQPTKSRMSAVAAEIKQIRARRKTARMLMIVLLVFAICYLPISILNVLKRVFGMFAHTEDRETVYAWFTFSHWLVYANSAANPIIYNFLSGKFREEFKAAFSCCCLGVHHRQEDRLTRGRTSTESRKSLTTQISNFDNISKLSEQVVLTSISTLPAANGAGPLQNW
In short: as §1

Row | SMILES | Emax at 0.1 µM (human OX1R; test compound 0.1 μM) | Emax at 1 µM (human OX1R; test compound 1.0 μM) | Emax at 10 µM (human OX1R; test compound 10 μM) | Response (%) OX2R (human OX2R; test compound 0.1 μM) | Response (%) OX2R (human OX2R; test compound 1.0 μM) | Response (%) OX2R (human OX2R; test compound 10 μM) | Response (%) OX1R (human OX1R; 0.1 μM test compound) | Response (%) OX1R (human OX1R; 1.0 μM test compound) | Response (%) OX1R (human OX1R; 10 μM test compound) | Response (%) OX2R (human OX2R; 0.1 μM test compound) | Response (%) OX2R (human OX2R; 1.0 μM test compound) | Response (%) OX2R (human OX2R; 10 μM test compound) | Response (%) OX1R (human OX1R; test compound 0.1 μM) | Response (%) OX1R (human OX1R; test compound 1.0 μM) | Response (%) OX1R (human OX1R; test compound 10 μM)
1 | COc1ccc(-c2cccc(C(=O)N(C)C)c2)cc1S(=O)(=O)Nc1cccc(N(CCNC(=O)OC(C)(C)C)Cc2ccccc2)c1 [Example 91, tert-butyl (2-((benzyl)(3-(3′-(dimethylcarbamoyl)-4-methoxy-[1,1′-biphenyl]-3-ylsulfonamido)phenyl)amino)ethyl)carbamate] | < 5% | < 5% | < 5% | <5% | <5% | 35% |  |  |  |  |  |  |  |  | 
2 | COc1cccc(CNc2cccc(NS(=O)(=O)c3cc(-c4cccc(C(=O)N(C)C)c4)ccc3OC)c2)c1 [Example 23] |  |  |  |  |  |  | <5% | 10% | 51% | 54% | 95% | 86% |  |  | 
3 | COc1ccc(-c2cccc(C(=O)N(C)C)c2)cc1S(=O)(=O)Nc1cccc(NC(=O)c2ccccc2C)c1 [Example 16] |  |  |  |  |  |  | <5% | <5% | 10% | <5% | 19% | 82% |  |  | 
4 | COc1ccc(-c2cccc(C(=O)N(C)C)c2)cc1S(=O)(=O)Nc1cccc(NC(=O)c2ccccc2N(C)C)c1 [Example 6] |  |  |  |  |  |  | 7% | 7% | 6% | 9% | 17% | 32% |  |  | 
5 | COc1ccc(-c2cccc(C(=O)N(C)C)c2)cc1S(=O)(=O)Nc1cccc(NC(=O)Nc2ccc([N+](=O)[O-])cc2)c1 [Example 61] |  |  |  |  |  |  | <5% | <5% | 7% | 24% | 105% | 99% |  |  | 
6 | COc1ccc(-c2cccc(C(=O)N(C)C)c2)cc1S(=O)(=O)Nc1cccc(NC(=O)Nc2ccc(NC(=NC(=O)OC(C)(C)C)NC(=O)OC(C)(C)C)cc2)c1 [Example 58] |  |  |  |  |  |  | <5% | <5% | <5% | <5% | <5% | 63% |  |  | 
7 | COc1ccc(-c2cccc(C(=O)N(C)C)c2)cc1S(=O)(=O)Nc1cccc(NS(=O)(=O)c2cccc(F)c2)c1 [Example 88] |  |  |  | 15% | 13% | 13% |  |  |  |  |  |  | 7% | 7% | 9%
8 | COc1ccc(C(=O)NCCCNC(=O)OC(C)(C)C)cc1S(=O)(=O)Nc1cccc(NC(=O)Nc2ccccc2N(C)C)c1 [Example 112, tert-butyl (3-(3-(N-(3-(3-(2-(dimethylamino)phenyl)ureido)phenyl)sulfamoyl)-4-methoxybenzamido)propyl)carbamate] | < 5% | < 5% | < 5% | <5% | 26% | 69% |  |  |  |  |  |  |  |  | 
9 | CCCOc1ccc(-c2cccc(C(=O)N(C)C)c2)cc1S(=O)(=O)Nc1cccc(NC(=O)Nc2cccc(N(C)C)c2)c1 [Example 120] |  |  |  | 29% | 84% | 103% |  |  |  |  |  |  | <5% | <5% | <5%
10 | COc1ccc(-c2cccc(C(=O)N(C)C)c2)cc1S(=O)(=O)Nc1cccc(NC(=N)Nc2cccc(C)c2)c1 [Example 78] |  |  |  |  |  |  | <5% | <5% | 14% | 23% | 89% | 86% |  |  | 
11 | COc1ccc(C(=O)NCc2ccccc2)cc1S(=O)(=O)Nc1cccc(NC(=O)Nc2cccc(N(C)C)c2)c1 [Example 100, N-benzyl-3-(N-(3-(3-(3-(dimethylamino)phenyl)ureido)phenyl)sulfamoyl)-4-methoxybenzamide] | < 5% | < 5% | < 5% | <5% | 7% | 49% |  |  |  |  |  |  |  |  | 
12 | COc1ccc(-c2cccc(C(=O)N(C)C)c2)cc1S(=O)(=O)Nc1cccc(NS(=O)(=O)N(C)C)c1 [Example 87] |  |  |  | <5% | 10% | 56% |  |  |  |  |  |  | <5% | <5% | <5%
13 | COc1ccc(-c2cccc(C(=O)N(C)C)c2)cc1S(=O)(=O)Nc1cccc(NC(=O)Nc2cccc(NC(=NC(=O)OC(C)(C)C)NC(=O)OC(C)(C)C)c2)c1 [Example 64] |  |  |  |  |  |  | <5% | <5% | <5% | <5% | <5% | <5% |  |  | 
14 | COc1ccc(Nc2cccc(NS(=O)(=O)c3cc(-c4cccc(C(=O)N(C)C)c4)ccc3OC)c2)cc1OC [Example 33] |  |  |  |  |  |  | <5% | <5% | 50% | 37% | 92% | 87% |  |  | 

Results, then the compound that gave them:

Row | Emax at 0.1 µM (human OX1R; test compound 0.1 μM) | Emax at 1 µM (human OX1R; test compound 1.0 μM) | Emax at 10 µM (human OX1R; test compound 10 μM) | Response (%) OX2R (human OX2R; test compound 0.1 μM) | Response (%) OX2R (human OX2R; test compound 1.0 μM) | Response (%) OX2R (human OX2R; test compound 10 μM) | Response (%) OX1R (human OX1R; 0.1 μM test compound) | Response (%) OX1R (human OX1R; 1.0 μM test compound) | Response (%) OX1R (human OX1R; 10 μM test compound) | Response (%) OX2R (human OX2R; 0.1 μM test compound) | Response (%) OX2R (human OX2R; 1.0 μM test compound) | Response (%) OX2R (human OX2R; 10 μM test compound) | Response (%) OX1R (human OX1R; test compound 0.1 μM) | Response (%) OX1R (human OX1R; test compound 1.0 μM) | Response (%) OX1R (human OX1R; test compound 10 μM) | SMILES
15 |  |  |  |  |  |  | 5% | 6% | 5% | <5% | 41% | 47% |  |  |  | COc1ccc(-c2cccc(C(=O)N(C)C)c2)cc1S(=O)(=O)Nc1cccc(NC(=O)c2ccc3ccccc3c2)c1 [Example 9]
16 |  |  |  |  |  |  | <5% | <5% | <5% | 7% | 81% | 102% |  |  |  | COc1ccc(-c2cccc(C(=O)N(C)C)c2)cc1S(=O)(=O)Nc1cccc(NC(=O)Nc2cc([N+](=O)[O-])cc([N+](=O)[O-])c2)c1 [Example 47]
17 |  |  |  |  |  |  | 13% | 11% | 32% | <5% | 26% | 74% |  |  |  | COc1ccc(-c2cccc(C(=O)N(C)C)c2)cc1S(=O)(=O)Nc1cccc(NC(=O)c2ccccc2Br)c1 [Example 2]
18 |  |  |  |  |  |  | 10% | 8% | <5% | <5% | <5% | 16% |  |  |  | COc1ccc(-c2cccc(C(=O)N(C)C)c2)cc1S(=O)(=O)Nc1cccc(NC(=O)c2ccncc2)c1 [Example 4]
19 |  |  |  |  |  |  | <5% | <5% | 15% | <5% | 6% | 44% |  |  |  | COc1ccccc1C(=O)Nc1cccc(NS(=O)(=O)c2cc(-c3cccc(C(=O)N(C)C)c3)ccc2OC)c1 [Example 18]
20 | < 5% | < 5% | < 5% | <5% | <5% | 46% |  |  |  |  |  |  |  |  |  | C=CC(=O)NCCN(C(=O)C=C)c1cccc(NS(=O)(=O)c2cc(-c3cccc(C(=O)N(C)C)c3)ccc2OC)c1 [Example 94, 3′-(N-(3-(N-(2-acrylamidoethyl)acrylamido)phenyl)sulfamoyl)-4′-methoxy-N,N-dimethyl-[1,1′-biphenyl]-3-carboxamide]
21 |  |  |  |  |  |  | <5% | <5% | 10% | 100% | 104% | 95% |  |  |  | COc1cccc(NC(=O)Nc2cccc(NS(=O)(=O)c3cc(-c4cccc(C(=O)N(C)C)c4)ccc3OC)c2)c1 [Example 44]
